Test results as given in the NIST ThermoML archive (doi:10.1021/je060271a).
Several values for one entry are separate records, joined by “and”; a condition that tells them apart may be missing. Equal entries are not always repeated. ± gives the expanded uncertainty stated by the source.

Details: Liquid, Vibrating tube method

CCCCCC(=O)OCC(COC(=O)CCCCC)(COC(=O)CCCCC)COC(=O)CCCCC [pentaerythritol tetrahexanoate]
Details | mass density
323.14 K, 9872.1 kPa | 979.5 ± 1.2 kg/m3
323.14 K, 9877.7 kPa | 979.4 ± 1.2 kg/m3
323.14 K, 9882.8 kPa | 979.5 ± 1.2 kg/m3
323.14 K, 9890.7 kPa | 979.4 ± 1.2 kg/m3
323.14 K, 10279 kPa | 979.8 ± 1.2 kg/m3
323.14 K, 10299 kPa | 979.7 ± 1.2 kg/m3
323.14 K, 10325 kPa | 979.8 ± 1.2 kg/m3
323.14 K, 10354 kPa | 979.8 ± 1.2 kg/m3
323.14 K, 10377 kPa | 979.8 ± 1.2 kg/m3
323.14 K, 10409 kPa | 979.8 ± 1.2 kg/m3
323.14 K, 10437 kPa | 979.7 ± 1.2 kg/m3
323.14 K, 10641 kPa | 980 ± 1.2 kg/m3
323.14 K, 10798 kPa | 980.1 ± 1.2 kg/m3
323.14 K, 10825 kPa | 980 ± 1.2 kg/m3
323.14 K, 10850 kPa | 980 ± 1.2 kg/m3
323.14 K, 10879 kPa | 980.1 ± 1.2 kg/m3
323.14 K, 10908 kPa | 980.2 ± 1.2 kg/m3
323.14 K, 10930 kPa | 980.1 ± 1.2 kg/m3
323.14 K, 11644 kPa | 980.6 ± 1.2 kg/m3
323.14 K, 11671 kPa | 980.7 ± 1.2 kg/m3
323.14 K, 11694 kPa | 980.7 ± 1.2 kg/m3
323.14 K, 11721 kPa | 980.6 ± 1.2 kg/m3
323.14 K, 11748 kPa | 980.6 ± 1.2 kg/m3
323.14 K, 11771 kPa | 980.7 ± 1.2 kg/m3
323.14 K, 11798 kPa | 980.7 ± 1.2 kg/m3
323.14 K, 11821 kPa | 980.9 ± 1.2 kg/m3
323.14 K, 11872 kPa | 980.8 ± 1.2 kg/m3
323.14 K, 13057 kPa | 981.6 ± 1.2 kg/m3
323.14 K, 13085 kPa | 981.6 ± 1.2 kg/m3
323.14 K, 13108 kPa | 981.6 ± 1.2 kg/m3
323.14 K, 13136 kPa | 981.6 ± 1.2 kg/m3
323.14 K, 13163 kPa | 981.7 ± 1.2 kg/m3
323.14 K, 13448 kPa | 981.9 ± 1.2 kg/m3
323.14 K, 13476 kPa | 981.9 ± 1.2 kg/m3
323.14 K, 13500 kPa | 982 ± 1.2 kg/m3
323.14 K, 13529 kPa | 981.8 ± 1.2 kg/m3
323.14 K, 13553 kPa | 981.9 ± 1.2 kg/m3
323.14 K, 13581 kPa | 982 ± 1.2 kg/m3
323.14 K, 13609 kPa | 981.9 ± 1.2 kg/m3
323.14 K, 13633 kPa | 982 ± 1.2 kg/m3
323.14 K, 13661 kPa | 982 ± 1.2 kg/m3
323.14 K, 13684 kPa | 982 ± 1.2 kg/m3
323.14 K, 13711 kPa | 982.1 ± 1.2 kg/m3
323.14 K, 13739 kPa | 982.1 ± 1.2 kg/m3
323.14 K, 13763 kPa | 982 ± 1.2 kg/m3
323.14 K, 13791 kPa | 982.1 ± 1.2 kg/m3
323.14 K, 13814 kPa | 982 ± 1.2 kg/m3
323.14 K, 13841 kPa | 982.2 ± 1.2 kg/m3
323.14 K, 13868 kPa | 982.2 ± 1.2 kg/m3
323.14 K, 14047 kPa | 982.2 ± 1.2 kg/m3
323.14 K, 14070 kPa | 982.3 ± 1.2 kg/m3
323.14 K, 14098 kPa | 982.2 ± 1.2 kg/m3
323.14 K, 14122 kPa | 982.3 ± 1.2 kg/m3
323.14 K, 14149 kPa | 982.4 ± 1.2 kg/m3
323.14 K, 14177 kPa | 982.3 ± 1.2 kg/m3
323.14 K, 14200 kPa | 982.3 ± 1.2 kg/m3
323.14 K, 14229 kPa | 982.4 ± 1.2 kg/m3
323.14 K, 14257 kPa | 982.3 ± 1.2 kg/m3
323.14 K, 14281 kPa | 982.5 ± 1.2 kg/m3
323.14 K, 14309 kPa | 982.5 ± 1.2 kg/m3
323.14 K, 14333 kPa | 982.4 ± 1.2 kg/m3
323.14 K, 14362 kPa | 982.5 ± 1.2 kg/m3
323.14 K, 14385 kPa | 982.3 ± 1.2 kg/m3
323.14 K, 14412 kPa | 982.5 ± 1.2 kg/m3
323.14 K, 14435 kPa | 982.6 ± 1.2 kg/m3
323.14 K, 14462 kPa | 982.5 ± 1.2 kg/m3
323.14 K, 14491 kPa | 982.5 ± 1.2 kg/m3
323.14 K, 14542 kPa | 982.6 ± 1.2 kg/m3
323.14 K, 14860 kPa | 982.8 ± 1.2 kg/m3
323.14 K, 14888 kPa | 982.8 ± 1.2 kg/m3
323.14 K, 14912 kPa | 982.7 ± 1.2 kg/m3
323.14 K, 14941 kPa | 982.8 ± 1.2 kg/m3
323.14 K, 14965 kPa | 982.8 ± 1.2 kg/m3
323.14 K, 14994 kPa | 982.8 ± 1.2 kg/m3
323.14 K, 15019 kPa | 982.8 ± 1.2 kg/m3
323.14 K, 15047 kPa | 982.8 ± 1.2 kg/m3
323.14 K, 15070 kPa | 982.8 ± 1.2 kg/m3
323.14 K, 15098 kPa | 983 ± 1.2 kg/m3
323.14 K, 15126 kPa | 982.9 ± 1.2 kg/m3
323.14 K, 15150 kPa | 982.9 ± 1.2 kg/m3
323.14 K, 15177 kPa | 983.1 ± 1.2 kg/m3
323.14 K, 15205 kPa | 983 ± 1.2 kg/m3
323.14 K, 15229 kPa | 983 ± 1.2 kg/m3
323.14 K, 32387 kPa | 993.4 ± 1.2 kg/m3
323.14 K, 32388 kPa | 993.7 ± 1.2 kg/m3 and 993.6 ± 1.2 kg/m3 and 993.5 ± 1.2 kg/m3
323.14 K, 32389 kPa | 993.5 ± 1.2 kg/m3 and 993.6 ± 1.2 kg/m3
323.14 K, 32390 kPa | 993.5 ± 1.2 kg/m3 and 993.6 ± 1.2 kg/m3
323.14 K, 32391 kPa | 993.5 ± 1.2 kg/m3
323.14 K, 32392 kPa | 993.6 ± 1.2 kg/m3
323.14 K, 32393 kPa | 993.5 ± 1.2 kg/m3
323.14 K, 32394 kPa | 993.5 ± 1.2 kg/m3
323.14 K, 32395 kPa | 993.5 ± 1.2 kg/m3
323.14 K, 32396 kPa | 993.5 ± 1.2 kg/m3 and 993.6 ± 1.2 kg/m3
323.14 K, 32398 kPa | 993.5 ± 1.2 kg/m3
323.14 K, 32399 kPa | 993.5 ± 1.2 kg/m3
323.14 K, 32400 kPa | 993.6 ± 1.2 kg/m3
323.14 K, 32401 kPa | 993.6 ± 1.2 kg/m3
323.14 K, 32402 kPa | 993.4 ± 1.2 kg/m3
323.14 K, 32403 kPa | 993.5 ± 1.2 kg/m3
323.14 K, 32404 kPa | 993.5 ± 1.2 kg/m3
323.15 K, 370.6 kPa | 972.9 ± 1.2 kg/m3
323.15 K, 372.9 kPa | 972.9 ± 1.2 kg/m3
323.15 K, 374.8 kPa | 973 ± 1.2 kg/m3
323.15 K, 377 kPa | 972.9 ± 1.2 kg/m3
323.15 K, 379.5 kPa | 972.9 ± 1.2 kg/m3
323.15 K, 381.7 kPa | 973 ± 1.2 kg/m3
323.15 K, 444.1 kPa | 973 ± 1.2 kg/m3
323.15 K, 447.6 kPa | 973 ± 1.2 kg/m3
323.15 K, 450.5 kPa | 973 ± 1.2 kg/m3
323.15 K, 453.3 kPa | 973 ± 1.2 kg/m3
323.15 K, 456.4 kPa | 973.1 ± 1.2 kg/m3
323.15 K, 460.3 kPa | 973 ± 1.2 kg/m3
323.15 K, 463.4 kPa | 973 ± 1.2 kg/m3
323.15 K, 466.7 kPa | 973 ± 1.2 kg/m3
323.15 K, 470.7 kPa | 973 ± 1.2 kg/m3
323.15 K, 473.8 kPa | 972.9 ± 1.2 kg/m3
323.15 K, 520.2 kPa | 973 ± 1.2 kg/m3
323.15 K, 524.4 kPa | 973.1 ± 1.2 kg/m3
323.15 K, 528.6 kPa | 973.1 ± 1.2 kg/m3
323.15 K, 532.7 kPa | 973 ± 1.2 kg/m3
323.15 K, 536.7 kPa | 973 ± 1.2 kg/m3
323.15 K, 542.1 kPa | 973 ± 1.2 kg/m3
323.15 K, 546.3 kPa | 972.9 ± 1.2 kg/m3
323.15 K, 551.3 kPa | 973.1 ± 1.2 kg/m3
323.15 K, 555.7 kPa | 973.2 ± 1.2 kg/m3
323.15 K, 560.2 kPa | 973.1 ± 1.2 kg/m3
323.15 K, 564.7 kPa | 973 ± 1.2 kg/m3
323.15 K, 567.1 kPa | 973 ± 1.2 kg/m3
323.15 K, 567.3 kPa | 973.1 ± 1.2 kg/m3
323.15 K, 568.2 kPa | 973 ± 1.2 kg/m3
323.15 K, 569.7 kPa | 973.1 ± 1.2 kg/m3
323.15 K, 571.8 kPa | 973.1 ± 1.2 kg/m3
323.15 K, 573.7 kPa | 973.1 ± 1.2 kg/m3
323.15 K, 575.6 kPa | 973.1 ± 1.2 kg/m3
323.15 K, 592.7 kPa | 973.1 ± 1.2 kg/m3
323.15 K, 594.8 kPa | 973.2 ± 1.2 kg/m3
323.15 K, 596.6 kPa | 973.1 ± 1.2 kg/m3
323.15 K, 598.6 kPa | 973.1 ± 1.2 kg/m3
323.15 K, 601.2 kPa | 973 ± 1.2 kg/m3
323.15 K, 603.4 kPa | 973 ± 1.2 kg/m3
323.15 K, 605.2 kPa | 973.1 ± 1.2 kg/m3
323.15 K, 607.4 kPa | 973.1 ± 1.2 kg/m3
323.15 K, 609.9 kPa | 973 ± 1.2 kg/m3
323.15 K, 612 kPa | 973.1 ± 1.2 kg/m3
323.15 K, 614 kPa | 973.1 ± 1.2 kg/m3
